Results reported in the NIST ThermoML archive (doi:10.1016/j.jct.2014.03.026).
± gives the expanded uncertainty stated by the source.

Experiment: Molar enthalpy of transition or fusion
Conditions: Crystal; DSC

- Molar enthalpy of transition or fusion: 7.33 ± 0.239 kcal/mol
SMILES: O=C1/C(=C/c2ccc(Cl)cc2)CCc2ccccc21
